These results are taken from PMC6101033 (Neuron, 2017).

One series concerns RhoA. The experiment in a line: RhoA2G FRET sensor imaging in hippocampal neurons. Conditions: AP5 1μM + ADDLs; dendritic shaft; Figure S4E.
In series [1] the test system is calcium signaling in hippocampal neurons. As to the kind of experiment: RCaMP calcium sensor imaging in hippocampal neurons. The following applies: for baseline calcium in dendrites, VGCC blockers: all 1μM, sustained (1 min mean) ΔF/F of shaft ROIs, n=3–11 neurons, p<0.03 vs control imaging period; for inhibition of dendritic calcium in neurons lacking T-type channels: shCaV3.1-3.3, Figure S5E.

Series [2] has as its system T-type calcium channels. The experiment in a line: T-type currents in acute hippocampal slices. Conditions: NNC added to slice; Figure S8E. The arrangement: species or system mouse.
Series [3] relates to hippocampal neurons. As to the kind of experiment: cell health and dendritic spine integrity under blockers. The series is classed as cell-based, Long-Evans rat. The following applies: hippocampal slice cultures; data not shown.
Series [4] deals with CA1 pyramidal neurons (Schaffer collateral-CA1 synapses).
The subject of series [5] is T-type calcium channels. The experiment in a line: whole-cell T-type. The series is classed as cell-based, Long-Evans rat. The following applies: for T-type current inhibition, blockers: 1μM; for LV currents in neurons lacking all T-type channels: shCaV3.1-3.3, Figure S6F.
The next series deals with T-type channel. The following applies: ref Yamamoto et al, 2013; cited from earlier work.
For another series, the system named is LTP. The following applies: ref Moriguchi et al., 20012; cited from earlier work.
The subject of series [6] is hippocampal neurons. The following applies: ref Wills et al., 2012; cited from earlier work.
Where [7] appears, read: AP5 1μM + ADDLs, dendritic shaft, Figure S4E.

For the compound `NC(CCCP(=O)(O)O)C(=O)O` (stereo not drawn) [AP5], the “long-term RhoA activation by ADDLs under NMDAR inhibition” value with RhoA is “long-term activation of RhoA and inhibition of calcium signaling is preserved”. In [1] (setting [7]), the “acute calcium response to ADDLs under NMDAR inhibition” value was “acute calcium responses to ADDLs in the dendritic shaft of neurons are lost”; the “long-term calcium inhibition by ADDLs under NMDAR inhibition” value was “long-term activation of RhoA and inhibition of calcium signaling is preserved”.
Consider `CC(C)[C@H]1c2ccc(F)cc2CC[C@@]1(CCN(C)CCCc1nc2ccccc2[nH]1)OC(=O)C1CC1` [NNC], for which the “LV currents in acute hippocampal slice” value in the series on T-type calcium channels [2] is given as “inhibits LV currents in our acute hippocampal slice recording”. In addition, the “effects on dendritic spines, NNC” value in the series with hippocampal neurons [3] is given as “no pathological effects on dendritic spines in hippocampal slice cultures”. The “LTP rescue under ADDLs by ROCK inhibition or NgR loss, effect of NNC” value in [4] (NNC 10μM + ADDL + Y27632 (10μM) or NgR^NNN, p<0.04) is given as “reverses the capacity of ROCK inhibition (Y27632) or NgR loss (NgR^NNN) to rescue neurons from ADDL-mediated LTP reduction”. For the same compound, the “LTP, NNC combined with ADDLs” value in series [4] (NNC 10μM + ADDL, fEPSC 55–60 min, n=6–8 animals/slices per condition) is given as “no greater inhibition of LTP than either ADDL or NNC alone”. Further, in [4] (NNC 10μM, 6 months mice, fEPSC 55–60 min, p<0.001 vs CON), the “LTP, T-type channel blocker” value is on record as “inhibits LTP in acute hippocampal slices”. In addition, in the series with T-type calcium channels [5], the “T-type current inhibition, blockers” value is “ADDL’s inhibition of T-type currents was comparable to T-type channel blockers NNC and TTA-P2”; the “LV currents in neurons lacking all T-type channels” value is given as “neither NNC or TTAP2 inhibit LV currents in neurons lacking all T-type channels”. Moreover, in series [1], the “baseline calcium in dendrites, VGCC blockers” value is “elicited the largest reductions in baseline calcium in dendrites”; the “inhibition of dendritic calcium in neurons lacking T-type channels” value was “eliminates NNC and TTA-P2’s inhibition of calcium signaling in dendrites”.
`O=C1N=C2C=CC=CN2C12Cc1ccccc1C2` [STK101, spiro[imidazo-[1,2-a]pyridine-3,2-indan]-2(3H)-one]: the T-type channel agonism result with T-type channel is given as “T-type channel agonist”. Further, the LTP entry in the series with LTP is “enhances LTP”.
Regarding `CC1(C)C[C@@H](CN2CCC(F)(CNC(=O)c3cc(Cl)cc(Cl)c3)CC2)CCO1` [TTA-P2], in the series with T-type calcium channels [5], the “T-type current inhibition, blockers” value is “ADDL’s inhibition of T-type currents was comparable to T-type channel blockers NNC and TTA-P2”; the “LV currents in neurons lacking all T-type channels” value was “neither NNC or TTAP2 inhibit LV currents in neurons lacking all T-type channels”. In addition, in series [1], the “baseline calcium in dendrites, VGCC blockers” value is “elicited the largest reductions in baseline calcium in dendrites”; the “inhibition of dendritic calcium in neurons lacking T-type channels” value was “eliminates NNC and TTA-P2’s inhibition of calcium signaling in dendrites”.
Regarding `C[C@@H](N)[C@H]1CC[C@H](C(=O)Nc2ccncc2)CC1` [Y27632], the “neuron health, Y27632” value in the series on hippocampal neurons [6] is “no deleterious effects on neuron health”. The “LTP, reversal of ADDL inhibition” value in series [4] (Y27632 1μM preincubation + ADDLs 150 nM, fEPSC 55–60 min, p<0.05 vs ADDL) is “reverses ADDL’s inhibition of LTP”. Besides, the “LTP, ROCK inhibitor alone” value in [4] (Y27632 1μM, control neurons, no ADDLs, p<0.03 vs CON (WT)) is reported as “blocks LTP”. Moreover, in the series with T-type calcium channels [5] (Y27632 1μM + ADDLs), the “reversal of ADDL block of T-type currents” value is listed as “reverses ADDL’s block of T-type channel currents”. Moreover, the “ADDL inhibition of dendritic calcium under ROCK inhibition” value in series [1] (Y27632 1μM, 10 minutes, then ADDLs 150nM, n=3 neurons) was “ADDL-mediated inhibition of dendritic calcium signaling in neurons is lost”. The “RCaMP activity in the dendritic shaft, ROCK inhibitor” value in [1] (Y27632 1μM, 1 min mean ΔF/F, shaft ROIs) was “marked rise in RCaMP activity in the dendritic shaft of neurons”. For the same compound, the “ADDL inhibition of dendritic calcium after washout of Y27632” value in series [1] (washout 10 minutes, then ADDLs 150nM, n=3 neurons, p<0.001 vs CON) was “following a washout of Y27632, ADDL’s inhibition of dendritic calcium signaling is restored”.
On to `COCCOC(=O)C1=C(C)NC(C)=C(C(=O)OC(C)C)C1c1cccc([N+](=O)[O-])c1` (stereo not drawn) [nimodipine], for which, in series [4] (Nimodipine 1μM, 6 months mice, fEPSC 55–60 min), the “LTP, L-type channel blocker” value is “no effect on LTP”.
Consider lysophosphatidic acid [LPA], for which the “T-type currents, RhoA activator” value in the series on T-type calcium channels [5] (LPA 1μM vs ADDLs 150nM, 14–18 DIV) is on record as “inhibits T-type currents with a magnitude comparable to that of ADDLs”.
